From patent US20060234373A1, “Treatment for diabetes” (priority 2002, published 2006) come the findings set out here.

Marks after values point to notes of the source that are not given here.

For one test, the system named is normal Wistar rats. Nature of the test: Pancreatic insulin content in normal rats treated with TGF-α and gastrin. Particulars: 0.8 μg/day each i.p. for 10 days, mean±SEM. It counts as in vivo, rat. The procedure:
Normal Wistar and Zucker rats were allowed normal chow ad libidum with free access to water and were acclimatized for one week prior to initiation of each study. Freshly prepared streptozotocin at a dose of 80 mg/kg body weight was administered by I.V. five to seven days after induction of diabetes, the rats were randomly allocated into groups for subsequent treatment. In examples 1-4, TGF-α and rat gastrin were reconstituted in sterile normal saline containing 0.1% BSA. According to the predetermined treatment schedule for different studies, each animal received a single, daily i.p. injection of either TGF-α or gastrin alone (4.0 μg/kg body weight) or as a 1:1 (w/w) combination (total 8.0 μg/kg) or PBS for a period of 10 days. […]
At the end of the study period (10 days), all animals were sacrificed and samples of pancreas taken as follows: five biopsy specimens (1-2 mg) of pancreatic tissue were taken from separate representative sites in each rat pancreas and immediately snap frozen in liquid nitrogen for analysis of insulin content. […] Pancreatic insulin content values were corrected according to protein content and finally expressed as μg insulin/mg pancreatic protein. All values calculated as mean±SEM and statistical significance evaluated using Student's 2-sample t-test.

The subject of a further test is isolated human islets. Nature of the test: β-cell population of isolated human islets maintained in culture. It counts as cell-based. The protocol:
The purpose of this experiment was to determine whether treatment with EGF and gastrin can increase the β-cell population of human islets in vitro and by what mechanism. Islet cell preparations were isolated from human donor pancreases (n=5) and prepared according to the approved protocol used for preparation of human islets for islet cell transplantation (Lakey JRT et al (1999) Cell transplant 8:285-292, and Ricordi C. et al. (1988) Diabetes 37:413-420). Islet cells were seeded at a concentration of 1×10^6 cells per dish and cultured for 4 weeks in serum free-MEM medium alone or supplemented with EGF (0.3 μg/ml), gastrin (1.0 μg/ml), or EGF+gastrin in combination for 4 weeks and maintained in culture for an additional 4 weeks.

Take Gastrin: in the test on normal Wistar rats, the “Pancreatic Insulin Content” value is 51.4 +/− 14.0** μg insulin/mg protein. In the test with isolated human islets (after 4 weeks culture, EGF 0.3 μg/ml, gastrin 1.0 μg/ml, medium alone −60%), the β-cell mass change is −1%. The “induction of PDX-1 expression on CK19+ ductal cells” value with isolated human islets (human islets in culture) is recorded as “mainly responsible for induction of PDX-1 expression”.

Turning to “TGF-α: recombinant Human TGF-α, an EGF receptor ligand”, the “Pancreatic Insulin Content” value in the test on normal Wistar rats is recorded as 30.4 +/− 7.4* μg insulin/mg protein.
